What all share (type): biochemical
In one assay the target is T1, Btk (Homo sapiens, UniProt Q06187).
T1 construct: purified from insect cells as a full-length construct containing a N-terminal 6X-His tag; His6 (N); made in house; host or cells: insect cells (Method C)
In words: Btk in vitro inhibitory activity (one of Method A TR-FRET, Method B electrophoretic mobility shift, Method C radiometric filter binding). The essentials: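 Three alternative formats were used. A radiometric filter-binding read used 8 nM full-length His-BTK with 0.2 mg/mL poly(Glu-Tyr) 4:1 (C); microfluidic separation of 1 μM FAM-peptide by 1 nM BTK gave IC50 from 12-point curves (B); TR-FRET at Km ATP, 0.5 nM Btk, gave Ki(app)-derived IC50 (A).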
In general terms: In EMSA bound probe runs differently from free probe, usually more slowly.

For another assay, the target named is T2, TEC (Homo sapiens, UniProt P42680).
T2 sequence (P42680 1-631): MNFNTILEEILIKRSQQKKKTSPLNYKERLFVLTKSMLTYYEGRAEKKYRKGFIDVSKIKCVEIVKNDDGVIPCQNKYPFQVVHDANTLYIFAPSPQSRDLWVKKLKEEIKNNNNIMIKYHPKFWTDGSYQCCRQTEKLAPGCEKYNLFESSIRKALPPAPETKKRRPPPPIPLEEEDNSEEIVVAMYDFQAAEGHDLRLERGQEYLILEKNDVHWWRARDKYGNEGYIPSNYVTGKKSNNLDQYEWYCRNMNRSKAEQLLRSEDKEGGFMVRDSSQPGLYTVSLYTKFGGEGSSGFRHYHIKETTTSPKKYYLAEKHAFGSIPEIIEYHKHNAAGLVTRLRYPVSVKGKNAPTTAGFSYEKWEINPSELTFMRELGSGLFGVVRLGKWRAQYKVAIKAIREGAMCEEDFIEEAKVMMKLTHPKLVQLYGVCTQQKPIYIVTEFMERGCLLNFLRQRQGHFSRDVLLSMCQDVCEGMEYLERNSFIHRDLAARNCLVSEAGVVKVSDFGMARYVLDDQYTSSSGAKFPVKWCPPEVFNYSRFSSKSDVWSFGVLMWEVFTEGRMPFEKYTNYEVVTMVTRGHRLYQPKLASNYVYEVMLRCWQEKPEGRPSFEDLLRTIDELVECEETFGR
Nature of the assay: Inhibition of a panel of kinases (in vitro HotSpot kinase assay, 33P-ATP, 1 μM ATP). Particulars: for IC50: HotSpot kinase assay, 1 μM ATP; for TEC/Btk: ratio of TEC IC50 to Btk IC50 (selectivity). The essentials: (§1)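 At 1 μM ATP spiked with 33P-ATP, substrate phosphorylation by the purified enzymes gives the extent of inhibition.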

For a further assay, the target named is T3, panel of kinases (Homo sapiens, UniProt P51813).
T3 sequence (P51813 1-675): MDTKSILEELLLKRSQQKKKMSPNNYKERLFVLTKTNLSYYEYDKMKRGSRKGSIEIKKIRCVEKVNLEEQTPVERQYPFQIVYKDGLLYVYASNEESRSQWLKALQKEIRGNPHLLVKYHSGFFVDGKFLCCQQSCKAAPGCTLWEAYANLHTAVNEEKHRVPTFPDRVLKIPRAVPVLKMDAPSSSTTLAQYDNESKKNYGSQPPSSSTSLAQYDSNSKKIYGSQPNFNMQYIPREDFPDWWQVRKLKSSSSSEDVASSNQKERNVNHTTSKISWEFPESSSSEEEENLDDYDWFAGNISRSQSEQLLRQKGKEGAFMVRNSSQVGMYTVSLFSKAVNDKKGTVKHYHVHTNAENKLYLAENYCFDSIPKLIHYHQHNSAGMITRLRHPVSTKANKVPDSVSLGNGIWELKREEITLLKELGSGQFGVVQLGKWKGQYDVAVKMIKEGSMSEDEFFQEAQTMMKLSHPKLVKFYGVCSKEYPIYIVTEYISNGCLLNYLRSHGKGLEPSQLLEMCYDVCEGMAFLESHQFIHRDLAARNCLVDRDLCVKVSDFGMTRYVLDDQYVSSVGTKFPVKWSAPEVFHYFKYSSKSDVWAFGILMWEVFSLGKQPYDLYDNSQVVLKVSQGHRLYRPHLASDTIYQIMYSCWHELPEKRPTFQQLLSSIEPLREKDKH
In words: Inhibition of a panel of kinases (in vitro HotSpot kinase assay, 33P-ATP, 1 μM ATP), other kinases. Particulars: BMX wild-type, read-out: BMX-WT IC50. The essentials: as §1

Where [1] appears, read: method is one of A, B or C, not stated which, read-out: IC50 values against Btk.
Where [2] appears, read: wild-type Btk, read-out: Btk-WT IC50.

This passage reports IC50 and TEC/Btk results from patent US20180194762A1 (Pharmacyclics LLC, priority 2017, published 2018).

Where two headings read alike, the source gives them in different places.

One may read the IC50 as the midpoint of a concentration-inhibition curve.

T1 sequence (Q06187 whole entry): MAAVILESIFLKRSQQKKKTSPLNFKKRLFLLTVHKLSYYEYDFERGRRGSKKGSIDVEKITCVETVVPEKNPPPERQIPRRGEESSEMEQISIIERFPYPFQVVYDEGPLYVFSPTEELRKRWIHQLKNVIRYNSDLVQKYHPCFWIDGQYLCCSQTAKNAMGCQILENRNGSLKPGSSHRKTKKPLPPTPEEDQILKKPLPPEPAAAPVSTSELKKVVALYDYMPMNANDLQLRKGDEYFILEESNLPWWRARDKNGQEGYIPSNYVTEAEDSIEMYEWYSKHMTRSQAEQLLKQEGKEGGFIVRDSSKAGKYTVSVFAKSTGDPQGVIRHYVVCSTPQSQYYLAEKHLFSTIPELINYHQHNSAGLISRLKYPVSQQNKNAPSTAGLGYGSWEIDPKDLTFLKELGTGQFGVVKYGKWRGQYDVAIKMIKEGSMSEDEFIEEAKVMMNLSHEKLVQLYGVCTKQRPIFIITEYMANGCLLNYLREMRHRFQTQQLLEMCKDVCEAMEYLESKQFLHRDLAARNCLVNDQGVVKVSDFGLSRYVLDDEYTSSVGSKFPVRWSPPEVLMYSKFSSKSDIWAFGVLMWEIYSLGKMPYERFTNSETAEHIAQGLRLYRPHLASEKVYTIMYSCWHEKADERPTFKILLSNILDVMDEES

As to `C=CC(=O)N1CC[C@@H](Nc2n[nH]c3nccc(-c4ccc(CN5CCn6c(cc7c6CC(C)(C)C7)C5=O)c(F)c4)c23)C1` [Example 53], the IC50 is under 10 nM at Btk (setting [1]), 0.623 nM at Btk (setting [2]), 152 nM at TEC and 310 nM at panel of kinases. For the same molecule, the TEC/Btk on TEC is recorded as 244.

Regarding `C[C@@H](NC(=O)c1nc(C(C)(C)C)no1)c1ccc(-c2ccnc3[nH]nc(NC4CCCC4)c23)cc1` [Example 201, 3-tert-butyl-N-[(1R)-1-{4-[3-(cyclopentylamino)-1H-pyrazolo[3,4-b]pyridin-4-yl]phenyl}ethyl]-1,2,4-oxadiazole-5-carboxamide], the IC50 on Btk (setting [2]) is 10.2 nM; on TEC, 8340 nM; on panel of kinases, 6700 nM. At TEC, the TEC/Btk was found to be 818.

Regarding `C=CC(=O)N1CC[C@@H](Nc2n[nH]c3nccc(-c4ccc(CNC(=O)c5ccccc5)c(F)c4)c23)C1` [Compound 33, (R)—N-(4-(3-((1-acryloylpyrrolidin-3-yl)amino)-1H-pyrazolo[3,4-b]pyridin-4-yl)-2-fluorobenzyl)benzamide], the values for the IC50 on Btk (setting [2]), at TEC and at panel of kinases were 15 nM, 217 nM and 25 nM, respectively. Moreover, at TEC, the TEC/Btk is listed as 14.

For `CC(C)c1noc(C(=O)N[C@H](C)c2ccc(-c3ccnc4[nH]nc(N5CCS(=O)(=O)CC5)c34)cc2)n1` [Example 405, N-[(1R)-1-{4-[3-(1,1-dioxo-1λ^6-thiomorpholin-4-yl)-1H-pyrazolo[3,4-b]pyridin-4-yl]phenyl}ethyl]-3-(propan-2-yl)-1,2,4-oxadiazole-5-carboxamide], the concentration for half-maximal inhibition (IC50) on Btk (setting [2]) came out at 31 nM; against TEC, 2380 nM; on panel of kinases, 3300 nM.

Turning to `C=CC(=O)N1CC[C@@H](Nc2n[nH]c3nccc(-c4ccc(CNC(=O)c5cc(Cl)on5)c(F)c4)c23)C1` [Example 342, 5-chloro-N-{[2-fluoro-4-(3-{[(3R)-1-(prop-2-enoyl)pyrrolidin-3-yl]amino}-1H-pyrazolo[3,4-b]pyridin-4-yl)phenyl]methyl}-1,2-oxazole-3-carboxamide], the IC50 worked out at 3.77 nM at Btk (setting [2]), 210 nM against TEC and 28.8 nM at panel of kinases.

`C[C@H]1CC[C@@H](Nc2n[nH]c3nccc(-c4ccc(CNC(=O)c5nc(C(C)(C)C)no5)c(F)c4)c23)CN1C(=O)C1(C)COC1` [Example 419, 3-tert-butyl-N-{[2-fluoro-4-(3-{[(3R,6S)-6-methyl-1-(3-methyloxetane-3-carbonyl)piperidin-3-yl]amino}-1H-pyrazolo[3,4-b]pyridin-4-yl)phenyl]methyl}-1,2,4-oxadiazole-5-carboxamide]: the IC50 at Btk (setting [2]) was found to be 1.87 nM; against TEC it was 1920 nM; at panel of kinases, 4990 nM.

As for `C=CC(=O)N1CC[C@@H](Nc2n[nH]c3nccc(-c4ccc(CNC(=O)c5nc(C(C)(C)C)no5)c(F)c4)c23)C1` [Example 83, 3-tert-butyl-N-{[2-fluoro-4-(3-{[(3R)-1-(prop-2-enoyl)pyrrolidin-3-yl]amino}-1H-pyrazolo[3,4-b]pyridin-4-yl)phenyl]methyl}-1,2,4-oxadiazole-5-carboxamide], the IC50 is under 10 nM at Btk (setting [1]), 0.056 nM at Btk (setting [2]), 28 nM against TEC and 52 nM at panel of kinases. Further, the TEC/Btk on TEC is 493.

For the molecule `C=CC(=O)N1CC[C@@H](Nc2n[nH]c3nccc(-c4ccc(CNC(=O)N5CCCCC5)c(F)c4)c23)C1` [Example 375, N-{[2-fluoro-4-(3-{[(3R)-1-(prop-2-enoyl)pyrrolidin-3-yl]amino}-1H-pyrazolo[3,4-b]pyridin-4-yl)phenyl]methyl}piperidine-1-carboxamide], the IC50 on Btk (setting [2]) was found to be 22.1 nM; at TEC, 807 nM; on panel of kinases, 98.3 nM.

Regarding `C[C@H]1CC[C@@H](Nc2n[nH]c3nccc(-c4ccc(CNC(=O)c5noc(C(C)(C)C)n5)c(F)c4)c23)CN1C=O` [Example 68, 5-tert-butyl-N-{[2-fluoro-4-(3-{[(3R,6S)-1-formyl-6-methylpiperidin-3-yl]amino}-1H-pyrazolo[3,4-b]pyridin-4-yl)phenyl]methyl}-1,2,4-oxadiazole-3-carboxamide], the IC50 was under 10 nM on Btk (setting [1]), 0.601 nM at Btk (setting [2]), 258 nM against TEC and 541 nM on panel of kinases. For the same molecule, the TEC/Btk at TEC is recorded as 429.

As for `C=CC(=O)N1CC[C@@H](Nc2n[nH]c3nccc(-c4ccc(CNC(=O)c5nnc(C(C)(C)C)o5)c(F)c4)c23)C1` [Example 81, 5-tert-butyl-N-{[2-fluoro-4-(3-{[(3R)-1-(prop-2-enoyl)pyrrolidin-3-yl]amino}-1H-pyrazolo[3,4-b]pyridin-4-yl)phenyl]methyl}-1,3,4-oxadiazole-2-carboxamide], the half-maximal inhibitory concentration (IC50) on Btk (setting [1]) is under 10 nM; on Btk (setting [2]) it was 0.227 nM; at TEC it was 131 nM; at panel of kinases, 89 nM. Also, on TEC, the TEC/Btk is reported as 577.

For the molecule `CC(=O)N[C@@H]1CCN(c2n[nH]c3nccc(-c4ccc(CNC(=O)c5coc(C(C)C)n5)c(F)c4)c23)C1` [Example 360, N-[(4-{3-[(3R)-3-acetamidopyrrolidin-1-yl]-1H-pyrazolo[3,4-b]pyridin-4-yl}-2-fluorophenyl)methyl]-2-(propan-2-yl)-1,3-oxazole-4-carboxamide], the IC50 on Btk (setting [2]) turned out to be 14.3 nM; on TEC it was 3210 nM; on panel of kinases, 3430 nM.

As to `CN(C)C/C=C/C(=O)N1CC[C@@H](Nc2n[nH]c3nccc(-c4ccc(CNC(=O)c5noc(C(C)(C)C)n5)c(F)c4)c23)C1` [Example 25, 5-tert-butyl-N-{[4-(3-{[(3R)-1-[(2E)-4-(dimethylamino)but-2-enoyl]pyrrolidin-3-yl]amino}-1H-pyrazolo[3,4-b]pyridin-4-yl)-2-fluorophenyl]methyl}-1,2,4-oxadiazole-3-carboxamide], the IC50 on Btk (setting [1]) is under 10 nM; at Btk (setting [2]) it was 0.481 nM; against TEC, 175 nM; on panel of kinases, 794 nM.

For `C[C@@H](NC(=O)c1cc(C(C)(C)O)on1)c1ccc(-c2ccnc3[nH]nc(NC4CCN(S(C)(=O)=O)CC4)c23)cc1` [Example 203, 5-(2-hydroxypropan-2-yl)-N-{(1R)-1-[4-(3-{[1-(methanesulfonyl)piperidin-4-yl]amino}-1H-pyrazolo[3,4-b]pyridin-4-yl)phenyl]ethyl}-1,2-oxazole-3-carboxamide], the IC50 at Btk (setting [2]) was over 1000 nM; on TEC, over 10000 nM; at panel of kinases, over 10000 nM. In addition, the TEC/Btk on TEC is recorded as over 10000.

As for `CC(C)(C)c1nc(C(=O)NCc2ccc(-c3ccnc4[nH]nc(N[C@H]5CCNC5)c34)cc2F)no1` [Compound 50, 5-tert-butyl-N-{[2-fluoro-4-(3-{[(3S)-pyrrolidin-3-yl]amino}-1H-pyrazolo[3,4-b]pyridin-4-yl)phenyl]methyl}-1,2,4-oxadiazole-3-carboxamide], the half-inhibitory concentration (IC50) was found to be 3.2 nM on Btk (setting [2]), 2960 nM at TEC and 7440 nM at panel of kinases. The TEC/Btk at TEC was 925.

Consider `C=CC(=O)N[C@@H]1CCN(c2n[nH]c3nccc(-c4ccc([C@@H](C)NC(=O)c5cc(C(C)(C)O)on5)c(F)c4)c23)C1` [Example 353, N-{(1R)-1-[2-fluoro-4-(3-{(3R)-3-[(prop-2-enoyl)amino]pyrrolidin-1-yl}-1H-pyrazolo[3,4-b]pyridin-4-yl)phenyl]ethyl}-5-(2-hydroxypropan-2-yl)-1,2-oxazole-3-carboxamide], for which the IC50 came to 0.244 nM at Btk (setting [2]), 67.8 nM on TEC and 35 nM on panel of kinases.
